Measurements reported in the NIST ThermoML archive (doi:10.1021/je900387e).

Assay: xn = mol fraction of the nth substance listed
Conditions: Liquid, Pycnometric method

CCCCBr [1-bromobutane] + O=C=O
Conditions	mass density [kg/m3]
332.4 K, 10370 kPa, x1 = 0.1495	915
332.4 K, 10440 kPa, x1 = 0.0461	587
332.4 K, 10440 kPa, x1 = 0.0683	677
332.4 K, 10510 kPa, x1 = 0.0989	783
332.4 K, 10520 kPa, x1 = 0.0461	595
332.4 K, 10560 kPa, x1 = 0.1495	918
332.4 K, 10570 kPa, x1 = 0.0683	686
332.4 K, 10590 kPa, x1 = 0.0461	603
332.4 K, 10650 kPa, x1 = 0.0989	788
332.4 K, 10710 kPa, x1 = 0.0683	694
332.4 K, 10720 kPa, x1 = 0.0461	615
332.4 K, 10750 kPa, x1 = 0.1495	921
332.4 K, 10820 kPa, x1 = 0.0989	793
332.4 K, 10870 kPa, x1 = 0.0683	703
332.4 K, 10880 kPa, x1 = 0.0461	627
332.4 K, 10940 kPa, x1 = 0.1495	924
332.4 K, 10990 kPa, x1 = 0.0989	798
332.4 K, 11050 kPa, x1 = 0.0683	712
332.4 K, 11070 kPa, x1 = 0.0461	640
332.4 K, 11120 kPa, x1 = 0.1495	927
332.4 K, 11180 kPa, x1 = 0.0989	804
332.4 K, 11240 kPa, x1 = 0.0683	721
332.4 K, 11270 kPa, x1 = 0.0461	654
332.4 K, 11310 kPa, x1 = 0.1495	930
332.4 K, 11390 kPa, x1 = 0.0989	808
332.4 K, 11460 kPa, x1 = 0.0683	730
332.4 K, 11510 kPa, x1 = 0.0461	668
332.4 K, 11530 kPa, x1 = 0.1495	933
332.4 K, 11600 kPa, x1 = 0.0989	814
332.4 K, 11720 kPa, x1 = 0.0683	739
332.4 K, 11730 kPa, x1 = 0.1495	936
332.4 K, 11780 kPa, x1 = 0.0461	683
332.4 K, 11830 kPa, x1 = 0.0989	819
332.4 K, 11970 kPa, x1 = 0.1495	939
332.4 K, 11980 kPa, x1 = 0.0461	689
332.4 K, 12000 kPa, x1 = 0.0683	749
332.4 K, 12060 kPa, x1 = 0.0989	825
332.4 K, 12190 kPa, x1 = 0.1495	942
332.4 K, 12220 kPa, x1 = 0.0461	703
332.4 K, 12330 kPa, x1 = 0.0461	708
332.4 K, 12330 kPa, x1 = 0.0683	759
332.4 K, 12330 kPa, x1 = 0.0989	830
332.4 K, 12450 kPa, x1 = 0.1495	945
332.4 K, 12620 kPa, x1 = 0.0989	836
332.4 K, 12650 kPa, x1 = 0.1495	948
332.4 K, 12670 kPa, x1 = 0.0683	770
332.4 K, 12920 kPa, x1 = 0.1495	951
332.4 K, 12930 kPa, x1 = 0.0989	842
332.4 K, 13080 kPa, x1 = 0.0683	780
332.4 K, 13170 kPa, x1 = 0.1495	954
332.4 K, 13250 kPa, x1 = 0.0989	847
332.4 K, 13470 kPa, x1 = 0.1495	958
332.4 K, 13540 kPa, x1 = 0.0683	791
332.4 K, 13600 kPa, x1 = 0.0989	853
332.4 K, 13750 kPa, x1 = 0.1495	961
332.4 K, 13980 kPa, x1 = 0.0989	859
332.4 K, 14040 kPa, x1 = 0.1495	964
332.4 K, 14050 kPa, x1 = 0.0683	802
332.4 K, 14320 kPa, x1 = 0.1495	967
332.4 K, 14360 kPa, x1 = 0.0989	865
332.4 K, 14630 kPa, x1 = 0.1495	970
332.4 K, 14640 kPa, x1 = 0.0683	814
332.4 K, 14810 kPa, x1 = 0.0989	871
332.4 K, 14910 kPa, x1 = 0.1495	973
332.4 K, 14960 kPa, x1 = 0.0683	820
332.4 K, 15090 kPa, x1 = 0.1495	975
335.9 K, 10180 kPa, x1 = 0.0683	589
335.9 K, 10200 kPa, x1 = 0.0683	591
335.9 K, 10210 kPa, x1 = 0.0683	593
335.9 K, 10240 kPa, x1 = 0.0683	597
335.9 K, 10250 kPa, x1 = 0.0683	601
335.9 K, 10310 kPa, x1 = 0.0683	607
335.9 K, 10380 kPa, x1 = 0.0683	614
335.9 K, 10450 kPa, x1 = 0.0683	620
335.9 K, 10540 kPa, x1 = 0.0683	627
335.9 K, 10610 kPa, x1 = 0.0683	634
335.9 K, 10700 kPa, x1 = 0.0683	641
335.9 K, 10790 kPa, x1 = 0.0683	649
335.9 K, 10940 kPa, x1 = 0.0683	660
335.9 K, 11140 kPa, x1 = 0.0683	672
335.9 K, 11350 kPa, x1 = 0.0683	684
335.9 K, 11590 kPa, x1 = 0.0683	697
335.9 K, 11870 kPa, x1 = 0.0683	710
335.9 K, 12340 kPa, x1 = 0.0683	728
335.9 K, 12930 kPa, x1 = 0.0683	747
335.9 K, 13690 kPa, x1 = 0.0683	767
335.9 K, 14350 kPa, x1 = 0.0683	783
335.9 K, 14890 kPa, x1 = 0.0683	794
335.9 K, 14990 kPa, x1 = 0.0683	797
335.9 K, 15110 kPa, x1 = 0.0683	800
337.4 K, 10000 kPa, x1 = 0.1495	872
337.4 K, 10190 kPa, x1 = 0.1495	876
337.4 K, 10210 kPa, x1 = 0.0461	479
337.4 K, 10240 kPa, x1 = 0.0989	714
337.4 K, 10260 kPa, x1 = 0.0461	482
337.4 K, 10290 kPa, x1 = 0.0989	717
337.4 K, 10310 kPa, x1 = 0.1495	879
337.4 K, 10340 kPa, x1 = 0.0461	492
337.4 K, 10360 kPa, x1 = 0.0989	722
337.4 K, 10430 kPa, x1 = 0.0461	502
337.4 K, 10430 kPa, x1 = 0.1495	881
337.4 K, 10440 kPa, x1 = 0.0989	726
337.4 K, 10520 kPa, x1 = 0.0989	730
337.4 K, 10540 kPa, x1 = 0.0461	513
337.4 K, 10580 kPa, x1 = 0.1495	884
337.4 K, 10590 kPa, x1 = 0.0989	735
337.4 K, 10660 kPa, x1 = 0.0461	524
337.4 K, 10690 kPa, x1 = 0.0989	739
337.4 K, 10690 kPa, x1 = 0.1495	887
337.4 K, 10790 kPa, x1 = 0.0461	537
337.4 K, 10790 kPa, x1 = 0.0989	743
337.4 K, 10810 kPa, x1 = 0.1495	889
337.4 K, 10890 kPa, x1 = 0.0989	748
337.4 K, 10910 kPa, x1 = 0.0461	549
337.4 K, 10970 kPa, x1 = 0.1495	893
337.4 K, 10990 kPa, x1 = 0.0989	752
337.4 K, 11060 kPa, x1 = 0.0461	563
337.4 K, 11100 kPa, x1 = 0.1495	895
337.4 K, 11130 kPa, x1 = 0.0989	757
337.4 K, 11230 kPa, x1 = 0.0461	577
337.4 K, 11240 kPa, x1 = 0.0989	762
337.4 K, 11250 kPa, x1 = 0.1495	898
337.4 K, 11370 kPa, x1 = 0.0461	588
337.4 K, 11370 kPa, x1 = 0.0989	766
337.4 K, 11420 kPa, x1 = 0.1495	901
337.4 K, 11510 kPa, x1 = 0.0461	599
337.4 K, 11520 kPa, x1 = 0.0989	771
337.4 K, 11580 kPa, x1 = 0.1495	904
337.4 K, 11680 kPa, x1 = 0.0461	611
337.4 K, 11680 kPa, x1 = 0.0989	776
337.4 K, 11740 kPa, x1 = 0.1495	906
337.4 K, 11830 kPa, x1 = 0.0989	781
337.4 K, 11860 kPa, x1 = 0.0461	623
337.4 K, 11920 kPa, x1 = 0.1495	909
337.4 K, 12010 kPa, x1 = 0.0989	786
337.4 K, 12070 kPa, x1 = 0.1495	912
337.4 K, 12080 kPa, x1 = 0.0461	636
337.4 K, 12200 kPa, x1 = 0.0989	791
337.4 K, 12280 kPa, x1 = 0.1495	915
337.4 K, 12320 kPa, x1 = 0.0461	649
337.4 K, 12390 kPa, x1 = 0.0989	796
337.4 K, 12490 kPa, x1 = 0.1495	918
337.4 K, 12580 kPa, x1 = 0.0461	663
337.4 K, 12620 kPa, x1 = 0.0989	801
337.4 K, 12680 kPa, x1 = 0.1495	921
337.4 K, 12850 kPa, x1 = 0.0989	806
337.4 K, 12890 kPa, x1 = 0.1495	924
337.4 K, 12910 kPa, x1 = 0.0461	674
337.4 K, 13110 kPa, x1 = 0.0989	812
337.4 K, 13130 kPa, x1 = 0.1495	927
337.4 K, 13260 kPa, x1 = 0.0461	693
337.4 K, 13320 kPa, x1 = 0.1495	930
337.4 K, 13360 kPa, x1 = 0.0989	817
337.4 K, 13530 kPa, x1 = 0.0461	703
337.4 K, 13550 kPa, x1 = 0.1495	933
337.4 K, 13650 kPa, x1 = 0.0989	822
337.4 K, 13770 kPa, x1 = 0.1495	936
337.4 K, 13920 kPa, x1 = 0.0989	828
337.4 K, 14020 kPa, x1 = 0.1495	939
337.4 K, 14220 kPa, x1 = 0.0989	833
337.4 K, 14300 kPa, x1 = 0.1495	942
337.4 K, 14530 kPa, x1 = 0.1495	945
337.4 K, 14570 kPa, x1 = 0.0989	839
337.4 K, 14750 kPa, x1 = 0.1495	948
337.4 K, 14880 kPa, x1 = 0.0989	844
337.4 K, 15050 kPa, x1 = 0.1495	951
337.4 K, 15220 kPa, x1 = 0.0989	850
337.9 K, 9120 kPa, x1 = 0.0245	280
337.9 K, 9150 kPa, x1 = 0.0245	283
337.9 K, 9220 kPa, x1 = 0.0245	288
337.9 K, 9290 kPa, x1 = 0.0245	292
337.9 K, 9370 kPa, x1 = 0.0245	297
337.9 K, 9440 kPa, x1 = 0.0245	303
337.9 K, 9520 kPa, x1 = 0.0245	308
337.9 K, 9600 kPa, x1 = 0.0245	314
337.9 K, 9680 kPa, x1 = 0.0245	320
337.9 K, 9750 kPa, x1 = 0.0245	325
337.9 K, 9830 kPa, x1 = 0.0245	331
337.9 K, 9920 kPa, x1 = 0.0245	338
337.9 K, 10000 kPa, x1 = 0.0245	345
337.9 K, 10080 kPa, x1 = 0.0245	352
337.9 K, 10180 kPa, x1 = 0.0245	359
337.9 K, 10270 kPa, x1 = 0.0245	367
337.9 K, 10360 kPa, x1 = 0.0245	375
337.9 K, 10450 kPa, x1 = 0.0245	383
337.9 K, 10560 kPa, x1 = 0.0245	391
337.9 K, 10620 kPa, x1 = 0.0245	397
337.9 K, 10630 kPa, x1 = 0.0245	399
